Data published in article PMC5334605, “Indolediketopiperazine Alkaloids from Eurotium cristatum EN-220, an Endophytic Fungus Isolated from the Marine Alga Sargassum thunbergii” (Marine Drugs, 2017).
≈ marks a conversion by molar mass, not a printed value.

system: brine shrimp (Artemia salina); assay: not given; format: in vivo; settings: Artemia salina; n.a. = no activity

Structure (SMILES)	brine shrimp lethality (LD50)
C=CC(C)(C)c1[nH]c2cc(CC=C(C)C)ccc2c1/C=C1\NC(=O)C(C)(OC)NC1=O (centres unmarked) [Compound 2, isovariecolorin I]	19.4 µg/mL
C=CC(C)(C)c1[nH]c2c(CC=C(C)CO)cc(CC=C(C)C)cc2c1CC1NC(=O)C(C)NC1=O (centres unmarked) [Compound 3, 30-Hydroxyechinulin]	138.1 µg/mL
C=CC(C)(C)c1[nH]c2c(CC=C(C)CO)cc(CC=C(C)C)cc2c1CC1NC(=O)C(C)NC1=O (centres unmarked) [Compound 4, 29-hydroxyechinulin]	140.6 µg/mL
C=CC(C)(C)c1[nH]c2ccccc2c1/C=c1\[nH]c(=O)c(=C)[nH]c1=O [Compound 7, neoechinulin B]	105.2 µg/mL
C=CC(C)(C)c1[nH]c2cc(CC=C(C)C)ccc2c1C=c1[nH]c(=O)c(=C)[nH]c1=O [Compound 8, neoechinulin C]	70.1 µg/mL
C=CC(C)(C)c1[nH]c2c(CC=C(C)C)cc(CC=C(C)C)cc2c1C[C@@H]1NC(=O)C(=C)NC1=O [Compound 10, didehydroechinulin]	27.1 µg/mL

same assay, conditions: result in words

Structure (SMILES)	lethal activity against brine shrimp
C=CC(C)(C)c1[nH]c2cc(CC=C(C)C)ccc2c1/C=C1\NC(=O)C(C)(OC)NC1=O (centres unmarked) [Compound 2, isovariecolorin I]	potent lethal activity
C=CC(C)(C)c1[nH]c2c(CC=C(C)CO)cc(CC=C(C)C)cc2c1CC1NC(=O)C(C)NC1=O (centres unmarked) [Compound 3, 30-Hydroxyechinulin]	weaklethal activities
C=CC(C)(C)c1[nH]c2c(CC=C(C)CO)cc(CC=C(C)C)cc2c1CC1NC(=O)C(C)NC1=O (centres unmarked) [Compound 4, 29-hydroxyechinulin]	weaklethal activities
C=CC(C)(C)c1[nH]c2ccccc2c1/C=c1\[nH]c(=O)c(=C)[nH]c1=O [Compound 7, neoechinulin B]	weaklethal activities
C=CC(C)(C)c1[nH]c2c(CC=C(C)C)cc(CC=C(C)C)cc2c1C[C@@H]1NC(=O)C(=C)NC1=O [Compound 10, didehydroechinulin]	potent lethal activity
C=CC(C)(C)c1[nH]c2c(CC=C(C)C)cc(CC=C(C)C)cc2c1C[C@@H]1NC(=O)[C@H](C)NC1=O [Compound 11, echinulin]	did not show any activity
C=CC(C)(C)c1[nH]c2c(CC=C(C)C)cc(CC=C(C)C)cc2c1C=C1NC(=O)C(C)NC1=O (centres unmarked) [Compound 12, dehydroechinulin]	did not show any activity

system: Panagrellus redivivus; assay: Nematicidal assay; format: in vivo; settings: Panagrellus redivivus; n.a. = no activity

Structure (SMILES)	nematicidal activity (LD50)
C=CC(C)(C)c1[nH]c2cc(CC=C(C)C)ccc2c1/C=C1\NC(=O)C(C)(OC)NC1=O (centres unmarked) [Compound 2, isovariecolorin I]	110.3 µg/mL
C=CC(C)(C)c1[nH]c2ccccc2c1/C=c1\[nH]c(=O)c(=C)[nH]c1=O [Compound 7, neoechinulin B]	>200 µg/mL
C=CC(C)(C)c1[nH]c2cc(CC=C(C)C)ccc2c1C=c1[nH]c(=O)c(=C)[nH]c1=O [Compound 8, neoechinulin C]	>200 µg/mL
C=CC(C)(C)c1[nH]c2c(CC=C(C)C)cc(CC=C(C)C)cc2c1C[C@@H]1NC(=O)C(=C)NC1=O [Compound 10, didehydroechinulin]	126.4 µg/mL

same assay, conditions: result in words

Structure (SMILES)	nematicidal activity against Panagrellus redivivus
C=CC(C)(C)c1[nH]c2cc(CC=C(C)C)ccc2c1/C=C1\NC(=O)C(C)(OC)NC1=O (centres unmarked) [Compound 2, isovariecolorin I]	weak nematicidal effect
C=CC(C)(C)c1[nH]c2c(CC=C(C)C)cc(CC=C(C)C)cc2c1C[C@@H]1NC(=O)C(=C)NC1=O [Compound 10, didehydroechinulin]	weak nematicidal effect
C=CC(C)(C)c1[nH]c2c(CC=C(C)C)cc(CC=C(C)C)cc2c1C[C@@H]1NC(=O)[C@H](C)NC1=O [Compound 11, echinulin]	did not show any activity
C=CC(C)(C)c1[nH]c2c(CC=C(C)C)cc(CC=C(C)C)cc2c1C=C1NC(=O)C(C)NC1=O (centres unmarked) [Compound 12, dehydroechinulin]	did not show any activity

system: not listed separately; assay: DPPH radical scavenging assay; settings: positive control ascorbic acid

Structure (SMILES)	DPPH radical scavenging activity (IC50)
O=C1O[C@H]([C@@H](O)CO)C(O)=C1O [Ascorbic Acid, ascorbic acid, reference compound]	2.0 µg/mL
C=CC(C)(C)c1[nH]c2cc(CC=C(C)C)ccc2c1/C=C1\NC(=O)C(C)(OC)NC1=O (centres unmarked) [Compound 2, isovariecolorin I]	20.6 µg/mL
C=CC(C)(C)c1[nH]c2c(C[C@H](O)C(C)(C)O)cccc2c1/C=C1\NC(=O)[C@H](C)NC1=O [Compound 6, rubrumazine B]	28.5 µg/mL
C=CC(C)(C)c1[nH]c2ccccc2c1/C=c1\[nH]c(=O)c(=C)[nH]c1=O [Compound 7, neoechinulin B]	10.9 µg/mL
C=CC(C)(C)c1[nH]c2cc(CC=C(C)C)ccc2c1C=c1[nH]c(=O)c(=C)[nH]c1=O [Compound 8, neoechinulin C]	12.1 µg/mL
C=CC(C)(C)c1[nH]c2c(CC=C(C)C)cc(CC=C(C)C)cc2c1C[C@@H]1NC(=O)C(=C)NC1=O [Compound 10, didehydroechinulin]	13.3 µg/mL
C=CC(C)(C)c1[nH]c2c(CC=C(C)C)cc(CC=C(C)C)cc2c1C[C@@H]1NC(=O)[C@H](C)NC1=O [Compound 11, echinulin]	13.8 µg/mL
C=CC(C)(C)c1[nH]c2c(CC=C(C)C)cc(CC=C(C)C)cc2c1C=C1NC(=O)C(C)NC1=O (centres unmarked) [Compound 12, dehydroechinulin]	6.4 µg/mL
C=CC(C)(C)c1[nH]c2ccccc2c1/C=C1\NC(=O)C(C)(OC)NC1=O (centres unmarked) [Compound 13, variecolorin H]	18.7 µg/mL

same assay, conditions: result in words

Structure (SMILES)	radical scavenging activity against DPPH radicals
C=CC(C)(C)c1[nH]c2c(CC=C(C)C)cc(CC=C(C)C)cc2c1C=C1NC(=O)C(C)NC1=O (centres unmarked) [Compound 12, dehydroechinulin]	potent radical scavenging activity

system: S. aureus; assay: Antimicrobial broth microdilution assay; format: cell-based, Staphyloccocus aureus; settings: Staphylococcus aureus, read-out: MIC against S. aureus

Structure (SMILES)	MIC
C=CC(C)(C)c1[nH]c2c(CC=C(C)C)cc(CC=C(C)C)cc2c1C[C@@H]1NC(=O)[C@H](C)NC1=O [Compound 11, echinulin]	256 µg/mL (≈ 555 µM)
C=CC(C)(C)c1[nH]c2c(CC=C(C)C)cc(CC=C(C)C)cc2c1C=C1NC(=O)C(C)NC1=O (centres unmarked) [Compound 12, dehydroechinulin]	256 µg/mL (≈ 557 µM)
C=CC(C)(C)c1[nH]c2ccccc2c1/C=C1\NC(=O)C(C)(OC)NC1=O (centres unmarked) [Compound 13, variecolorin H]	256 µg/mL (≈ 724 µM)

system: Magnaporthe grisea; assay: microbe, parasite or virus in culture; format: cell-based; settings: Pyricularia oryzae, read-out: MIC against Magnaporthe grisea

Structure (SMILES)	MIC
C=CC(C)(C)c1[nH]c2c(C[C@H](O)C(C)(C)O)cccc2c1/C=C1\NC(=O)[C@H](C)NC1=O [Compound 6, rubrumazine B]	64 µg/mL (≈ 150 µM)
